Values of other authors in US20240335532A1, “NANOPARTICULATE FORMULATION” (NewImmune II, LLC, priority 2021, published 2024).
Read-outs that look alike come from different tables or passages of the source.

What was measured:
influenza [1] = details: 50 μg intraperitoneally, with influenza vaccine, mice
[2] = single subcutaneous dose, rats
[3] = intravenous 0.5 to 5.0 mg/kg, dogs
[4] = intravenous 2 mg/kg/day, gestational Days 6-18, pregnant rabbits
[5] = 2000 and 5000 mg/kg under occlusion, rabbits
[6] = 30 mg subcutaneous dose, healthy human volunteers
influenza [7] = details: topical pre-treatment, young and elderly individuals
[8] = dermal exposure, mice
[9] = mice
[10] = rats
[11] = monkeys

CC(C)Cn1cnc2c(N)nc3ccccc3c21 [imiquimod, 1-(2-methylpropyl)imidazo[4,5-c]quinolin-4-amine]
pH of maximum solubility in aqueous solution (Britton-Robinson buffer): ≤ 2
aqueous solubility (above pH 6): only sparingly soluble
solubility in aqueous solution (physiological pH): very low solubility
humoral immune responses against the virus (influenza [1]): significantly expedited and augmented
protection against early lethal viral challenges (influenza [1]): conferred significant protection
subcutaneous lethal dose [2]: 20 mg/kg
cardiovascular and nervous system effects [3]: produced cardiac stimulation, central nervous system stimulation and some evidence of autonomic nervous system inhibition
embryofetal toxicity or teratogenicity [4]: No treatment related effects
dermal toxicity [5]: no deaths and no signs of toxicity other than mild transient erythema at the application site
tolerability [6]: well tolerated
immunogenicity of influenza vaccination (influenza [7]): significantly improves the immunogenicity
incidence of tumors or non-neoplastic lesions [8]: no increase
single dose toxicity [9]: high degree of safety
single dose toxicity [10]: high degree of safety
single dose toxicity [11]: high degree of safety
